In patent US20250145625A1, “PYRAZOLOPYRIMIDINE DERIVATIVE AND ANTICANCER PHARMACEUTICAL COMPOSITION CONTAINING SAME AS ACTIVE INGREDIENT” (KOREA RESEARCH INSTITUTE OF CHEMICAL TECHNOLOGY, priority 2021, published 2025):
Read-outs that look alike come from different tables or passages of the source.

Assays:
[1] = system: MDA-MB-231 triple negative breast cancer cell line; test: Cytotoxicity in TTK-expressed MDA-MB-231 cells; type: cell-based; conditions: Homo sapiens, MDA-MB-231, 120 h, 5 days
Method: To determine the cytotoxicity of a compound represented by Chemical Formula 1 according to the present invention to MDA-MB-231 cells, the following test was conducted.
MDA-MB-231 triple negative breast cancer cell line purchased from ATCC was inoculated into each well of a 96-well plate at a volume of 90 μL containing 2,000 cells. Thereafter, an example compound of the present invention was added to respective wells at concentrations of 10 μM, 3 μM, 1 μM, 0.3 μM, 0.1 μM, and 0 μM, and the cells were cultured in a cell incubator at 37° C. for 5 days. Five days later, 10 μL of Cyto X solution (manufacturer: LPS Solution) was added to each of the wells, and the absorbance was measured at 450 nm using an Epoch microplate spectrophotometer (manufacturer: BioTek Instruments Inc.) according to the product's user guide. For cytotoxicity, the IC50 value for cytotoxicity of each compound was calculated by quantifying the number of cells using the measured value.

[2] = system: HCT116 colon cancer cell line; test: Cytotoxicity in TTK-expressed HCT116 cells; type: cell-based; conditions: Homo sapiens, HCT-116, 120 h, 5 days
Method: To determine the cytotoxicity of a compound represented by Chemical Formula 1 according to the present invention to HCT116 cells, the following test was conducted.
HCT116 colon cancer cell line purchased from ATCC was inoculated into each well of a 96-well plate at a volume of 90 μL containing 2,000 cells. Thereafter, an example compound of the present invention was added to respective wells at concentrations of […], 3 μM, 1 μM, 0.3 μM, 0.1 μM, and 0 μM, and the cells were cultured in a cell incubator at 37° C. for 5 days. After 5 days, the number of cells was measured by CCK8 test method, and the cytotoxicity was determined by calculating the IC50 value for cytotoxicity of each compound.

[3] = target: recombinant human TTK protein (Homo sapiens (Human), UniProt P33981); test: Evaluation of TTK activity inhibitory ability (scintillation counting); type: biochemical;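 further: reaction stopped with 0.5% phosphoric acid, spotted on P30 filter, TTK activity counted by scintillation, uninhibited no-compound wells taken as 100% control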
recombinant human TTK protein, sequence (P33981 whole entry): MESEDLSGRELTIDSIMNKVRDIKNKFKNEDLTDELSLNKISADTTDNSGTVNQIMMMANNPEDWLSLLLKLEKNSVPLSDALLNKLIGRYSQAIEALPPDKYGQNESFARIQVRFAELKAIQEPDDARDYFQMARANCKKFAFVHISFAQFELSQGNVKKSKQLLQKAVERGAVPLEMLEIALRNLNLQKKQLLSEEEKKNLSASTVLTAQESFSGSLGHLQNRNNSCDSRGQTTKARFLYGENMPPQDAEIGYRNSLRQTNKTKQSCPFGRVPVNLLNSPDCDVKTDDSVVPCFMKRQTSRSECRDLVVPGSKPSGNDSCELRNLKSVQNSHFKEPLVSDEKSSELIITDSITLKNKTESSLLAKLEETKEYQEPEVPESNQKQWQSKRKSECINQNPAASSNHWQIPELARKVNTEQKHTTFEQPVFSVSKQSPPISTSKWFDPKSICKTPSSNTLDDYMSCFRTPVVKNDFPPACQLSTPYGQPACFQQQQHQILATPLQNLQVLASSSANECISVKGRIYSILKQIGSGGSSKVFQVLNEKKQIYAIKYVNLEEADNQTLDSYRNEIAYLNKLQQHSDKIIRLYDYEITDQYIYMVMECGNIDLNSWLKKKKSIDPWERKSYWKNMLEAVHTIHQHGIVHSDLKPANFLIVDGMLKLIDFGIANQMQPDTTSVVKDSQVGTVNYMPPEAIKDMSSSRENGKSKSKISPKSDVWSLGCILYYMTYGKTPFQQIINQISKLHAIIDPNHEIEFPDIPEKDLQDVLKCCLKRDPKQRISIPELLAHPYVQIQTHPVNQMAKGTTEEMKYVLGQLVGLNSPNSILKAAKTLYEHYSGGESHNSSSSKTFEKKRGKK
Method: To determine the ability of a compound represented by Chemical Formula 1 according to the present invention to inhibit TTK activity, the following experiment was conducted.
After that, the reaction was terminated by adding phosphoric acid to a concentration of 0.5%, and 10 of the reaction solution was dropped onto a P30 filter. […] The activity of TTK was measured through scintillation counting. The activity value from the group with no compound was set as 100% of control, and the degree of TTK inhibition by the compound was calculated.

IRR(h) = IRR(h) (Homo sapiens (Human), UniProt P14616); test: Kinase activity inhibitory ability (panel); type: biochemical; conditions: compound at 500 nM
IRR(h), sequence (P14616 27-1297): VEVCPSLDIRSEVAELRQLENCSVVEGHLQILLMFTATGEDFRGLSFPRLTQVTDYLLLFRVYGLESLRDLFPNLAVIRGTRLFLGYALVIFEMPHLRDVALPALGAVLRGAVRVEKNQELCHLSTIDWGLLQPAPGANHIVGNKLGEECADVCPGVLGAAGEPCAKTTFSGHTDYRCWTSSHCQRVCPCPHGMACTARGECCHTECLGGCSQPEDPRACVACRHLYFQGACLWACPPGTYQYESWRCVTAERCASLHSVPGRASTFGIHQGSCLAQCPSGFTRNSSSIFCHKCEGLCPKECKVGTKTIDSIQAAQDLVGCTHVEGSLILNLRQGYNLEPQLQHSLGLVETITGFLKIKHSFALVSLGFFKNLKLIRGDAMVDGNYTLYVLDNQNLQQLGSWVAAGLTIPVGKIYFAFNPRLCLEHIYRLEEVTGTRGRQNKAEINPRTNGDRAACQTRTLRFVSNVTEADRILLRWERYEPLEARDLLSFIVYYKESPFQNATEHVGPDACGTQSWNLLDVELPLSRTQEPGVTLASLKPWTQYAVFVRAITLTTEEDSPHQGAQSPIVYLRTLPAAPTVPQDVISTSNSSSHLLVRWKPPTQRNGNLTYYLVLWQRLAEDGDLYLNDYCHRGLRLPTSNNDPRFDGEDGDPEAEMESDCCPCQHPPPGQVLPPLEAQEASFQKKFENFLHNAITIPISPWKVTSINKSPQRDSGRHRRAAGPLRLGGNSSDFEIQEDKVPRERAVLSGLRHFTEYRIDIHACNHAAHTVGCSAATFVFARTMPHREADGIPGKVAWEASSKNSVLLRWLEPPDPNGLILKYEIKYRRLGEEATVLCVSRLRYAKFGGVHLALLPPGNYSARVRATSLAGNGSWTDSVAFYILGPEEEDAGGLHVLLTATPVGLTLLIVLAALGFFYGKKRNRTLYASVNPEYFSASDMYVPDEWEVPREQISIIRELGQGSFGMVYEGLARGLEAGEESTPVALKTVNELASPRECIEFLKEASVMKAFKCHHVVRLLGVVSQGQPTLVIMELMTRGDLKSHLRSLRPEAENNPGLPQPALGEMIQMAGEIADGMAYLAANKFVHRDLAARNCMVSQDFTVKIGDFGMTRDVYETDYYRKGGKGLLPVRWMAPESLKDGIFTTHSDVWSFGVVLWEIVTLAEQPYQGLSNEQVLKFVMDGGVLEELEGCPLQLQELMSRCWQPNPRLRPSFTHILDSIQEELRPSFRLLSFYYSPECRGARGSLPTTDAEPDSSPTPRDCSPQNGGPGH

IR(h), activated = IR(h), activated (Homo sapiens (Human), UniProt P06213); test: Kinase activity inhibitory ability (panel); type: biochemical; conditions: compound at 500 nM
IR(h), activated, sequence (P06213 28-1382): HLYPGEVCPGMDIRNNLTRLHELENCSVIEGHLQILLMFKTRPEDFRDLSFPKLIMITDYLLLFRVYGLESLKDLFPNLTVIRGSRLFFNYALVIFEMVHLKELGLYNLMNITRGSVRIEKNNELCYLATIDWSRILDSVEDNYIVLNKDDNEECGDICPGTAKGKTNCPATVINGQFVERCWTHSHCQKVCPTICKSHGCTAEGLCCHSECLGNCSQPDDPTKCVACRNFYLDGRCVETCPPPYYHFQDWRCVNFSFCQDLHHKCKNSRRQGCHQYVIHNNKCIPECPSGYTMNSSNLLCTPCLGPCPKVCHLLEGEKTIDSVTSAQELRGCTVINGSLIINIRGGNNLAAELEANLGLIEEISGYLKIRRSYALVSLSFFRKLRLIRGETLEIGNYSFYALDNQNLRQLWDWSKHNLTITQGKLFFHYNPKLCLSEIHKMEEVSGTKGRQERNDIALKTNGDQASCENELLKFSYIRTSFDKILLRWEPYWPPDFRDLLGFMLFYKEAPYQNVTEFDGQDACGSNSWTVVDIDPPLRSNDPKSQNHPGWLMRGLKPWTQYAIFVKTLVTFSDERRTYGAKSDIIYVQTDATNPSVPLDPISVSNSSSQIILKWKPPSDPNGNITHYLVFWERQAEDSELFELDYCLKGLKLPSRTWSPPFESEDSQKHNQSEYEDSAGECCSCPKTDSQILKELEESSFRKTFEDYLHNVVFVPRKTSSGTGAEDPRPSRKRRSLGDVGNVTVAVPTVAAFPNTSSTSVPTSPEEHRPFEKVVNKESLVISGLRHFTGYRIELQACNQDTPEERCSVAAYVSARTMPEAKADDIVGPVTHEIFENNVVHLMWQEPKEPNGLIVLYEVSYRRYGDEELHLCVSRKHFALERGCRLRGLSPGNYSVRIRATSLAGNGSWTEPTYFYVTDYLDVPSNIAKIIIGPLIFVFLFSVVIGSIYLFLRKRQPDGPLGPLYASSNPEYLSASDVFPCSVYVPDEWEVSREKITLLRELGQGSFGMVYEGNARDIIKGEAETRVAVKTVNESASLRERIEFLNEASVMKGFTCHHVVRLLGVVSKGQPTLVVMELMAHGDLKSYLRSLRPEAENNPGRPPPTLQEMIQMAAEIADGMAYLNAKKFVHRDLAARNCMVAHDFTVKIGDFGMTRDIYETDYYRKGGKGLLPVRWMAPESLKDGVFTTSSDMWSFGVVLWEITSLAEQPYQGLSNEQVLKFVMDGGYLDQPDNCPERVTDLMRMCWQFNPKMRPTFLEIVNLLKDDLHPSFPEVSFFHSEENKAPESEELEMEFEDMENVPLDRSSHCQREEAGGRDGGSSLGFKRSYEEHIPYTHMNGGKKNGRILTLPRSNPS

ALK(h) = ALK(h) (Homo sapiens (Human), UniProt Q9UM73); test: Kinase activity inhibitory ability (panel); type: biochemical; conditions: compound at 500 nM
TTK(h) = TTK(h) (Homo sapiens (Human), UniProt P33981); test: Kinase activity inhibitory ability (panel); type: biochemical
TTK(h), sequence (P33981 whole entry): as the sequence (P33981 whole entry) above

LTK(h) = LTK(h) (Homo sapiens (Human), UniProt P29376); test: Kinase activity inhibitory ability (panel); type: biochemical; conditions: compound at 500 nM
LTK(h), sequence (P29376 17-864): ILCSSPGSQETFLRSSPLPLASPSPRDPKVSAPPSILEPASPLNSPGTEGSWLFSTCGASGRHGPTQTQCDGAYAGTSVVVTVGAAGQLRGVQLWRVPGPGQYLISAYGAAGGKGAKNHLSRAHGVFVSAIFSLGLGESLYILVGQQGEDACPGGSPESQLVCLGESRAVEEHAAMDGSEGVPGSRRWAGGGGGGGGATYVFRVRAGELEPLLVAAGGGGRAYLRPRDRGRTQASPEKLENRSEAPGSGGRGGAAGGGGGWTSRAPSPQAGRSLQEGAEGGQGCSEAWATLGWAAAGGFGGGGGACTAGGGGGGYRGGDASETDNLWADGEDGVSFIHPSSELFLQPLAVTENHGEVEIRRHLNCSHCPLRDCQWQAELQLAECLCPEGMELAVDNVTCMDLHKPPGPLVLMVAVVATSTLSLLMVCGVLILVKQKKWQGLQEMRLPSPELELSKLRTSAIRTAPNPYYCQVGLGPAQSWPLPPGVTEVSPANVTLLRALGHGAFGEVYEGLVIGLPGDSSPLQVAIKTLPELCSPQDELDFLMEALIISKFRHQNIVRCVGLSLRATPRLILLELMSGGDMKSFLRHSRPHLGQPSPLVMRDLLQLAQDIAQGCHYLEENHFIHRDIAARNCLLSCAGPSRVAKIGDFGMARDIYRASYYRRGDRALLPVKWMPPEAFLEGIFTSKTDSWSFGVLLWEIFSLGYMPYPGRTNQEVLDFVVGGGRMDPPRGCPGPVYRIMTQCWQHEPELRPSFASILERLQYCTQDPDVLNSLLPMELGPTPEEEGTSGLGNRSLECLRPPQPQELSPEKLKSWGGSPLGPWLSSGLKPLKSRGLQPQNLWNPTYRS

[4] = TTK inhibitory activity, read-out: IC50

| Structure (SMILES) | IC50 [3, 4] [nM] | IC50 [1] [nM] | IC50 [2] [nM] | further results |
| --- | --- | --- | --- | --- |
| COc1ccc(Cn2nc(-c3cn[nH]c3)c3c(NC4CCCCC4)nc(Nc4ccc(N5CCOCC5)cc4OC)nc32)cc1 [Compound 8-8, N^4-cyclohexyl-N^6-(2-methoxy-4-morpholinophenyl)-1-(4-methoxybenzyl)-3-(1H-pyrazol-4-yl)-1H-pyrazolo[3,4-d]pyrimidine-4,6-diamine] |  | < 150 | < 150 | IC50 [3]: 30 to 100 nM; activity at 0.5 µM (IRR(h)): 7%; inhibition at 0.5 µM (IRR(h)): > 90%; activity at 0.5 µM (IR(h), activated): 8%; inhibition at 0.5 µM (IR(h), activated): > 90%; activity at 0.5 µM (ALK(h)): 2%; inhibition at 0.5 µM (ALK(h)): > 90%; TTK activity inhibition (in words) (TTK(h); 500 nM): completely inhibited TTK activity; activity at 0.5 µM (TTK(h); TTK(h), compound at 500 nM): -7%; inhibition at 0.5 µM (TTK(h); TTK(h), compound at 500 nM): > 90%; activity at 0.5 µM (LTK(h)): 2%; inhibition at 0.5 µM (LTK(h)): > 90% |
| COc1cc(N2CCOCC2)ccc1Nc1nc(NC2CCCCC2)c2c(-c3cnoc3)n[nH]c2n1 [Compound 8-20, N^4-cyclohexyl-3-(isoxazol-4-yl)-N^6-(2-methoxy-4-morpholinophenyl)-1H-pyrazolo[3,4-d]pyrimidine-4,6-diamine] | < 30 | < 150 | < 150 |  |
| COc1cc(N2CCOCC2)ccc1Nc1nc(NC2CCCCC2)c2c(-c3ccn(C)n3)n[nH]c2n1 [Compound 8-13, N^4-cyclohexyl-N^6-(2-methoxy-4-morpholinophenyl)-3-(1-methyl-1H-pyrazol-3-yl)-1H-pyrazolo[3,4-d]pyrimidine-4,6-diamine] | < 30 | 500 to 1000 | 500 to 1000 |  |
| COc1cc(N2CCOCC2)ccc1Nc1nc(NC2CCCCC2)c2c(-c3cccc(NS(C)(=O)=O)c3)n[nH]c2n1 [Compound 8-6, N-(3-(4-(cyclohexylamino)-6-((2-methoxy-4-morpholinophenyl)amino)-1H-pyrazolo[3,4-d]pyrimidin-3-yl)phenyl)methanesulfonamide] | 30 to 100 | > 1000 | > 1000 |  |
| COc1cc(N2CCOCC2)ccc1Nc1nc(NC2CCCCC2)c2c(-c3cn(C)cn3)n[nH]c2n1 [Compound 8-19, N^4-cyclohexyl-N^6-(2-methoxy-4-morpholinophenyl)-3-(1-methyl-1H-imidazol-4-yl)-1H-pyrazolo[3,4-d]pyrimidine-4,6-diamine] | 30 to 100 | 150 to 500 | 500 to 1000 |  |
| COc1cc(N2CCOCC2)ccc1Nc1nc(NC2CCOCC2)c2c(-c3cnoc3)n[nH]c2n1 [Compound 8-21, 3-(Isoxazol-4-yl)-N^6-(2-methoxy-4-morpholinophenyl)-N^4-(tetrahydro-2H-pyran-4-yl)-1H-pyrazolo[3,4-d]pyrimidine-4,6-diamine] | 30 to 100 | 500 to 1000 | 500 to 1000 |  |
| COc1cc(N2CCOCC2)ccc1Nc1nc(NC2CCCCC2)c2c(-c3cnn(C(F)F)c3)n[nH]c2n1 [Compound 8-12, N^4-cyclohexyl-3-(1-(difluoromethyl)-1H-pyrazol-4-yl)-N^6-(2-methoxy-4-morpholinophenyl)-1H-pyrazolo[3,4-d]pyrimidine-4,6-diamine] | 30 to 100 | 150 to 500 | 150 to 500 |  |
| COc1cc(N2CCOCC2)ccc1Nc1nc(NC2CCCCC2)c2c(-c3cnn(C)c3)n[nH]c2n1 [Compound 8-7, N^4-cyclohexyl-N^6-(2-methoxy-4-morpholinophenyl)-3-(1-methyl-1H-pyrazol-4-yl)-1H-pyrazolo[3,4-d]pyrimidine-4,6-diamine] | 100 to 300 | 150 to 500 | 500 to 1000 |  |
| COc1cc(N2CCOCC2)ccc1Nc1nc(NC2CCCCC2)c2c(-c3ccc4[nH]cnc4c3)n[nH]c2n1 [Compound 8-16, 3-(1H-benzo[d]imidazol-5-yl)-N^4-cyclohexyl-N^6-(2-methoxy-4-morpholinophenyl)-1H-pyrazolo[3,4-d]pyrimidine-4,6-diamine] | 30 to 100 | 500 to 1000 | < 150 |  |
| COc1cc(N2CCOCC2)ccc1Nc1nc(NC2CCCCC2)c2c(-c3cncs3)n[nH]c2n1 [Compound 8-15, N^4-cyclohexyl-N^6-(2-methoxy-4-morpholinophenyl)-3-(thiazol-5-yl)-1H-pyrazolo[3,4-d]pyrimidine-4,6-diamine] | < 30 | 150 to 500 | 150 to 500 |  |
| COc1cc(N2CCOCC2)ccc1Nc1nc(NC2CCOCC2)c2c(-c3cnn(C(F)F)c3)n[nH]c2n1 [Compound 8-24, 3-(1-(difluoromethyl)-1H-pyrazol-4-yl)-N^6-(2-methoxy-4-morpholinophenyl)-N^4-(tetrahydro-2H-pyran-4-yl)-1H-pyrazolo[3,4-d]pyrimidine-4,6-diamine] | < 30 | 150 to 500 | 150 to 500 |  |

Further lines, with some results ahead:

| IC50 [3, 4] [nM] | Structure (SMILES) | IC50 [1] [nM] | IC50 [2] [nM] | further results |
| --- | --- | --- | --- | --- |
| 30 to 100 | COc1cc(N2CCOCC2)ccc1Nc1nc(NC2CCOCC2)c2c(-c3cn(C)nn3)n[nH]c2n1 [Compound 21-3, N^6-(2-methoxy-4-morpholinophenyl)-3-(1-methyl-1H-1,2,3-triazol-4-yl)-N^4-(tetrahydro-2H-pyran-4-yl)-1H-pyrazolo[3,4-d]pyrimidine-4,6-diamine] | 150 to 500 | < 150 |  |
| < 30 | COc1cc(N2CCOCC2)ccc1Nc1nc(NC2CCCCC2)c2c(-c3cn(C)nn3)n[nH]c2n1 [Compound 21-2, N^4-cyclohexyl-N^6-(2-methoxy-4-morpholinophenyl)-3-(1-methyl-1H-1,2,3-triazol-4-yl)-1H-pyrazolo[3,4-d]pyrimidine-4,6-diamine] | < 150 | < 150 |  |
| < 30 | CNC(=O)c1ccc(Nc2nc(NC3CCOCC3)c3c(-c4cnco4)n[nH]c3n2)c(OC)c1 [Compound 33-2, 3-methoxy-N-methyl-4-((3-(oxazol-5-yl)-4-((tetrahydro-2H-pyran-4-yl)amino)-1H-pyrazolo[3,4-d]pyrimidin-6-yl)amino)benzamide] | 150 to 500 | 500 to 1000 |  |
| < 30 | COc1cc(N2CCOCC2)ccc1Nc1nc(Nc2ccccc2)c2c(-c3cnn(C)c3)n[nH]c2n1 [Compound 26-2, N^6-(2-methoxy-4-morpholinophenyl)-3-(1-methyl-1H-pyrazol-4-yl)-N^4-phenyl-1H-pyrazolo[3,4-d]pyrimidine-4,6-diamine] | > 1000 | > 1000 |  |
| 30 to 100 | COc1cc(N2CCOCC2)ccc1Nc1nc(NC2CCCCC2)c2c(-c3n[nH]c(=O)o3)n[nH]c2n1 [Compound 14-3, 5-(4-(cyclohexylamino)-6-((2-methoxy-4-morpholinophenyl)amino)-1H-pyrazolo[3,4-d]pyrimidin-3-yl)-1,3,4-oxadiazol-2(3H)-one] | 150 to 500 | < 150 |  |
| < 30 | CNC(=O)c1ccc(Nc2nc(NC3CCCCC3)c3c(-c4cnn(C)c4)n[nH]c3n2)c(OC)c1 [Compound 11-3, 4-((4-(cyclohexylamino)-3-(1-methyl-1H-pyrazol-4-yl)-1H-pyrazolo[3,4-d]pyrimidin-6-yl)amino)-3-methoxy-N-methylbenzamide] | < 150 | 150 to 500 |  |
| < 30 | COc1cc(N2CCOCC2)ccc1Nc1nc(NC2CCOCC2)c2c(-c3cnco3)n[nH]c2n1 [Compound 33-1, N^6-(2-methoxy-4-morpholinophenyl)-3-(oxazol-5-yl)-N^4-(tetrahydro-2H-pyran-4-yl)-1H-pyrazolo[3,4-d]pyrimidine-4,6-diamine] | < 150 | < 150 |  |
